From paper PMC10313671, “Accelerating the prediction and discovery of peptide hydrogels with human-in-the-loop” (Nature Communications, 2023) come the findings set out here.

Where a SMILES comes first, the peptide text is derived from it.

One series can be described thus: Peptide hydrogel formation, vial-inverting method. The series is classed as physicochemical. Further details: key to EXP / GELATION: 0: no hydrogel; 1: hydrogel. The settings on record: 120 mM peptide (highest tested) in ultrapure water; pH 6.5-8.5 (1 N NaOH), ultrasonication, standing 48 h; vial-inverting method; precipitate, sol, suspension = no gel. As to the method: After validating the efficiency of APHC in predicting tetrapeptide hydrogels, we detailed the phase state of 165 synthesized tetrapeptides and the observed assembly behavior in an aqueous solution.
This work defines hydrogel formation as a self-supporting, non-flowing mixture of water and hydrogelator by the vial-inverting method. All purified tetrapeptides were dissolved in ultrapure water (to form a 30 mM solution initially), followed by the stepwise addition of 1 N NaOH solution to adjust the overall aqueous pH to 6.5–8.5. Meanwhile, a short-term ultrasonication treatment was applied after each pH adjustment to facilitate peptide solubilization and speed up peptide self-assembly. […] The mixture was allowed to stand in for another 48 h for complete hydrogelation. Upon the absence of gelation phenomenon during the aforementioned loops, we increased the peptide concentration (60 mM, 90 mM, and 120 mM were selected) and re-started such gelation operation loop to explore their gelation feasibility.
As for `CC[C@H](C)[C@H](N)C(=O)N[C@@H](Cc1c[nH]c2ccccc12)C(=O)N1CCC[C@H]1C(=O)N[C@@H](Cc1c[nH]c2ccccc12)C(=O)O` [IWPW] (H-IWPW-OH), the State result is on record as “precipitate”.
Still for that read-out and setting: then `CC[C@H](C)[C@H](NC(=O)[C@@H](NC(=O)[C@H](Cc1c[nH]cn1)NC(=O)[C@@H](N)CCC(N)=O)[C@@H](C)CC)C(=O)O` [QHII] (H-QHII-OH), with “sol”.
On the same count and under the same terms, then `NCC(=O)NCC(=O)NCC(=O)NCC(=O)O` [GGGG] (H-GGGG-OH), with “sol”; and `CSCC[C@H](NC(=O)[C@@H](N)CCCCN)C(=O)N[C@@H](CC(C)C)C(=O)N[C@@H](Cc1ccccc1)C(=O)O` [KMLF] (H-KMLF-OH), with “suspension”.
Still for that read-out and setting: then `CC(C)[C@H](N)C(=O)N[C@@H](C)C(=O)N[C@@H](Cc1ccccc1)C(=O)N[C@@H](Cc1ccc(O)cc1)C(=O)O` [VAFY] (H-VAFY-OH), with “gel”; and `N[C@@H](Cc1c[nH]c2ccccc12)C(=O)N[C@@H](Cc1c[nH]c2ccccc12)C(=O)N[C@@H](Cc1c[nH]c2ccccc12)C(=O)N[C@@H](Cc1c[nH]c2ccccc12)C(=O)O` [WWWW] (H-WWWW-OH), with “suspension”.
In the case of `CSCC[C@H](N)C(=O)N[C@H](C(=O)N[C@@H](CCC(N)=O)C(=O)NCC(=O)O)C(C)C` [MVQG] (H-MVQG-OH), the State result is “suspension”.
Consider `CC(C)C[C@H](NC(=O)[C@H](C)NC(=O)[C@@H](N)C(C)C)C(=O)N[C@@H](CCC(=O)O)C(=O)O` [VALE] (H-VALE-OH), for which the State entry is “suspension”.
Same read-out and setting: then `N[C@@H](Cc1c[nH]c2ccccc12)C(=O)N1CCC[C@H]1C(=O)N[C@@H](Cc1ccc(O)cc1)C(=O)N[C@@H](Cc1ccc(O)cc1)C(=O)O` [WPYY] (H-WPYY-OH), with “precipitate”.
On the same count and under the same terms, then `CC(C)[C@H](NC(=O)[C@@H](N)Cc1ccc(O)cc1)C(=O)N[C@@H](Cc1ccccc1)C(=O)N[C@@H](C)C(=O)O` [YVFA] (H-YVFA-OH), with “gel”.
Still for that read-out and setting: then `CC[C@H](C)[C@H](N)C(=O)N[C@H](C(=O)N[C@H](C(=O)N[C@@H](CCCNC(=N)N)C(=O)O)[C@@H](C)CC)[C@@H](C)CC` [IIIR] (H-IIIR-OH), with “suspension”.
With `C[C@@H](O)[C@H](N)C(=O)N[C@@H](CCCNC(=N)N)C(=O)N[C@@H](Cc1ccccc1)C(=O)N[C@@H](CO)C(=O)O` [TRFS] (H-TRFS-OH), the State entry was “suspension”.
On the same count and under the same terms, then `N[C@@H](Cc1c[nH]c2ccccc12)C(=O)N[C@@H](Cc1ccccc1)C(=O)N[C@@H](Cc1c[nH]cn1)C(=O)N1CCC[C@H]1C(=O)O` [WFHP] (H-WFHP-OH), with “sol”.

Still in this series, the particulars now being: concentration at which the state was recorded: lowest of 30, 60, 90, 120 mM that gave a gel; 120 mM for non-gelating peptides.
In the case of `CC[C@H](C)[C@H](N)C(=O)N[C@@H](Cc1c[nH]c2ccccc12)C(=O)N1CCC[C@H]1C(=O)N[C@@H](Cc1c[nH]c2ccccc12)C(=O)O` [IWPW] (H-IWPW-OH), the “Concentration” value amounted to 120 mM.
On the same count and under the same terms, then `CC[C@H](C)[C@H](NC(=O)[C@@H](NC(=O)[C@H](Cc1c[nH]cn1)NC(=O)[C@@H](N)CCC(N)=O)[C@@H](C)CC)C(=O)O` [QHII] (H-QHII-OH), with 120 mM; and `NCC(=O)NCC(=O)NCC(=O)NCC(=O)O` [GGGG] (H-GGGG-OH), with 120 mM; and `CSCC[C@H](NC(=O)[C@@H](N)CCCCN)C(=O)N[C@@H](CC(C)C)C(=O)N[C@@H](Cc1ccccc1)C(=O)O` [KMLF] (H-KMLF-OH), with 120 mM.
Same read-out and setting: then `CC(C)[C@H](N)C(=O)N[C@@H](C)C(=O)N[C@@H](Cc1ccccc1)C(=O)N[C@@H](Cc1ccc(O)cc1)C(=O)O` [VAFY] (H-VAFY-OH), with 120 mM; and `N[C@@H](Cc1c[nH]c2ccccc12)C(=O)N[C@@H](Cc1c[nH]c2ccccc12)C(=O)N[C@@H](Cc1c[nH]c2ccccc12)C(=O)N[C@@H](Cc1c[nH]c2ccccc12)C(=O)O` [WWWW] (H-WWWW-OH), with 120 mM; and `CSCC[C@H](N)C(=O)N[C@H](C(=O)N[C@@H](CCC(N)=O)C(=O)NCC(=O)O)C(C)C` [MVQG] (H-MVQG-OH), with 120 mM.
In the case of `CC(C)C[C@H](NC(=O)[C@H](C)NC(=O)[C@@H](N)C(C)C)C(=O)N[C@@H](CCC(=O)O)C(=O)O` [VALE] (H-VALE-OH), the “Concentration” value is reported as 120 mM.
Still for that read-out and setting: then `N[C@@H](Cc1c[nH]c2ccccc12)C(=O)N1CCC[C@H]1C(=O)N[C@@H](Cc1ccc(O)cc1)C(=O)N[C@@H](Cc1ccc(O)cc1)C(=O)O` [WPYY] (H-WPYY-OH), with 120 mM; and `CC(C)[C@H](NC(=O)[C@@H](N)Cc1ccc(O)cc1)C(=O)N[C@@H](Cc1ccccc1)C(=O)N[C@@H](C)C(=O)O` [YVFA] (H-YVFA-OH), with 120 mM; and `CC[C@H](C)[C@H](N)C(=O)N[C@H](C(=O)N[C@H](C(=O)N[C@@H](CCCNC(=N)N)C(=O)O)[C@@H](C)CC)[C@@H](C)CC` [IIIR] (H-IIIR-OH), with 120 mM.
On the same count and under the same terms, then `C[C@@H](O)[C@H](N)C(=O)N[C@@H](CCCNC(=N)N)C(=O)N[C@@H](Cc1ccccc1)C(=O)N[C@@H](CO)C(=O)O` [TRFS] (H-TRFS-OH), with 120 mM; and `N[C@@H](Cc1c[nH]c2ccccc12)C(=O)N[C@@H](Cc1ccccc1)C(=O)N[C@@H](Cc1c[nH]cn1)C(=O)N1CCC[C@H]1C(=O)O` [WFHP] (H-WFHP-OH), with 120 mM.

Still in this series, the particulars now being: peptide concentration 120 mM; vial-inverting method; 1 = hydrogel, 0 = no hydrogel.
`CC[C@H](C)[C@H](N)C(=O)N[C@@H](Cc1c[nH]c2ccccc12)C(=O)N1CCC[C@H]1C(=O)N[C@@H](Cc1c[nH]c2ccccc12)C(=O)O` [IWPW] (H-IWPW-OH) returned a GELATION of 0.
Still for that read-out and setting: then `CC[C@H](C)[C@H](NC(=O)[C@@H](NC(=O)[C@H](Cc1c[nH]cn1)NC(=O)[C@@H](N)CCC(N)=O)[C@@H](C)CC)C(=O)O` [QHII] (H-QHII-OH), with 0; and `NCC(=O)NCC(=O)NCC(=O)NCC(=O)O` [GGGG] (H-GGGG-OH), with 0; and `CSCC[C@H](NC(=O)[C@@H](N)CCCCN)C(=O)N[C@@H](CC(C)C)C(=O)N[C@@H](Cc1ccccc1)C(=O)O` [KMLF] (H-KMLF-OH), with 0.
`CC(C)[C@H](N)C(=O)N[C@@H](C)C(=O)N[C@@H](Cc1ccccc1)C(=O)N[C@@H](Cc1ccc(O)cc1)C(=O)O` [VAFY] (H-VAFY-OH) returned a GELATION of 1.
Still for that read-out and setting: then `N[C@@H](Cc1c[nH]c2ccccc12)C(=O)N[C@@H](Cc1c[nH]c2ccccc12)C(=O)N[C@@H](Cc1c[nH]c2ccccc12)C(=O)N[C@@H](Cc1c[nH]c2ccccc12)C(=O)O` [WWWW] (H-WWWW-OH), with 0; and `CSCC[C@H](N)C(=O)N[C@H](C(=O)N[C@@H](CCC(N)=O)C(=O)NCC(=O)O)C(C)C` [MVQG] (H-MVQG-OH), with 0; and `CC(C)C[C@H](NC(=O)[C@H](C)NC(=O)[C@@H](N)C(C)C)C(=O)N[C@@H](CCC(=O)O)C(=O)O` [VALE] (H-VALE-OH), with 0.
In turn, `N[C@@H](Cc1c[nH]c2ccccc12)C(=O)N1CCC[C@H]1C(=O)N[C@@H](Cc1ccc(O)cc1)C(=O)N[C@@H](Cc1ccc(O)cc1)C(=O)O` [WPYY] (H-WPYY-OH) returned a GELATION of 0.
Same read-out and setting: then `CC(C)[C@H](NC(=O)[C@@H](N)Cc1ccc(O)cc1)C(=O)N[C@@H](Cc1ccccc1)C(=O)N[C@@H](C)C(=O)O` [YVFA] (H-YVFA-OH), with 1; and `CC[C@H](C)[C@H](N)C(=O)N[C@H](C(=O)N[C@H](C(=O)N[C@@H](CCCNC(=N)N)C(=O)O)[C@@H](C)CC)[C@@H](C)CC` [IIIR] (H-IIIR-OH), with 0; and `N[C@@H](Cc1c[nH]c2ccccc12)C(=O)N[C@@H](Cc1ccccc1)C(=O)N[C@@H](Cc1c[nH]cn1)C(=O)N1CCC[C@H]1C(=O)O` [WFHP] (H-WFHP-OH), with 0.

The series is the same for the next values; noted with them: vial-inverting method; representative hydrogels pH between 7.0 to 7.5.
For `N[C@@H](Cc1c[nH]c2ccccc12)C(=O)N1CCC[C@H]1C(=O)N[C@@H](Cc1ccc(O)cc1)C(=O)N[C@@H](Cc1ccc(O)cc1)C(=O)O` [WPYY] (H-WPYY-OH), the “hydrogel formation (in words)” value is reported as “cannot”.

A short description of another series: Transmission electron microscope (negative staining) of peptide assemblies. The settings on record: TEM, negative staining with uranyl acetate, 120 kV; line of the table gives 120 mM.
Procedure: We used the negative staining technique to observe the morphologies formed by peptides. A micropipette was used to load 10 μL of sample solution to a carbon-coated copper grid, and we used a piece of filter paper to remove the excess solution. After rinsing the grid with the deionized water, we used uranyl acetate to stain the sample for 1 minute and then rinsed the grid with deionized water again.
In the case of `CC[C@H](C)[C@H](N)C(=O)N[C@@H](Cc1c[nH]c2ccccc12)C(=O)N1CCC[C@H]1C(=O)N[C@@H](Cc1c[nH]c2ccccc12)C(=O)O` [IWPW] (H-IWPW-OH), the Morphology entry was “aggregates”.
The same measure, in the same setting: then `CC[C@H](C)[C@H](NC(=O)[C@@H](NC(=O)[C@H](Cc1c[nH]cn1)NC(=O)[C@@H](N)CCC(N)=O)[C@@H](C)CC)C(=O)O` [QHII] (H-QHII-OH), with “aggregates”; and `NCC(=O)NCC(=O)NCC(=O)NCC(=O)O` [GGGG] (H-GGGG-OH), with “aggregates”.
The same measure, in the same setting: then `CSCC[C@H](NC(=O)[C@@H](N)CCCCN)C(=O)N[C@@H](CC(C)C)C(=O)N[C@@H](Cc1ccccc1)C(=O)O` [KMLF] (H-KMLF-OH), with “aggregates”; and `CC(C)[C@H](N)C(=O)N[C@@H](C)C(=O)N[C@@H](Cc1ccccc1)C(=O)N[C@@H](Cc1ccc(O)cc1)C(=O)O` [VAFY] (H-VAFY-OH), with “sphere”.
Same read-out and setting: then `N[C@@H](Cc1c[nH]c2ccccc12)C(=O)N[C@@H](Cc1c[nH]c2ccccc12)C(=O)N[C@@H](Cc1c[nH]c2ccccc12)C(=O)N[C@@H](Cc1c[nH]c2ccccc12)C(=O)O` [WWWW] (H-WWWW-OH), with “sphere”.
For `CSCC[C@H](N)C(=O)N[C@H](C(=O)N[C@@H](CCC(N)=O)C(=O)NCC(=O)O)C(C)C` [MVQG] (H-MVQG-OH), the Morphology entry is reported as “aggregates”.
Still for that read-out and setting: then `CC(C)C[C@H](NC(=O)[C@H](C)NC(=O)[C@@H](N)C(C)C)C(=O)N[C@@H](CCC(=O)O)C(=O)O` [VALE] (H-VALE-OH), with “aggregates”; and `N[C@@H](Cc1c[nH]c2ccccc12)C(=O)N1CCC[C@H]1C(=O)N[C@@H](Cc1ccc(O)cc1)C(=O)N[C@@H](Cc1ccc(O)cc1)C(=O)O` [WPYY] (H-WPYY-OH), with “sphere”.
Same read-out and setting: then `CC(C)[C@H](NC(=O)[C@@H](N)Cc1ccc(O)cc1)C(=O)N[C@@H](Cc1ccccc1)C(=O)N[C@@H](C)C(=O)O` [YVFA] (H-YVFA-OH), with “sphere”; and `CC[C@H](C)[C@H](N)C(=O)N[C@H](C(=O)N[C@H](C(=O)N[C@@H](CCCNC(=N)N)C(=O)O)[C@@H](C)CC)[C@@H](C)CC` [IIIR] (H-IIIR-OH), with “aggregates”; and `C[C@@H](O)[C@H](N)C(=O)N[C@@H](CCCNC(=N)N)C(=O)N[C@@H](Cc1ccccc1)C(=O)N[C@@H](CO)C(=O)O` [TRFS] (H-TRFS-OH), with “particle”.
Still for that read-out and setting: then `N[C@@H](Cc1c[nH]c2ccccc12)C(=O)N[C@@H](Cc1ccccc1)C(=O)N[C@@H](Cc1c[nH]cn1)C(=O)N1CCC[C@H]1C(=O)O` [WFHP] (H-WFHP-OH), with “aggregates”.

Still in this series, the particulars now being: aqueous solution or hydrogel; negative staining.
Take `C[C@@H](O)[C@H](N)C(=O)N[C@@H](CCCNC(=N)N)C(=O)N[C@@H](Cc1ccccc1)C(=O)N[C@@H](CO)C(=O)O` [TRFS] (H-TRFS-OH): the “morphology by TEM (in words)” value is listed as “aggregates with different sizes”.
